Drawing on PubChem BioAssay (NCI), this text covers TGI and GI50 for 16 molecules.

Holding throughout (assay): NCI-60 cell line screen, 48 h
The test system of assay [1] is SK-MEL-28 melanoma.
The test system of assay [2] is KM12 colon.
Assay [3] relates to SK-MEL-2 melanoma.
The test system of assay [4] is EKVX NSCLC.
The test system of assay [5] is UACC-62 melanoma.
Assay [6] relates to MALME-3M melanoma.
Assay [7] relates to OVCAR-5 ovarian.
Assay [8] deals with RPMI-8226 leukemia.
Assay [9] has as its system MDA-MB-231 breast.

The structures appear in SMILES notation.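 Growth conditions: 96-well plates. Treatment: test compound, 48 hours, 5 concentrations. Analysis: linear interpolation between bracketing concentrations; unreached endpoints set to highest concentration. GI50 marks 50% less growth. The concentration for full growth arrest is given as TGI.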

Turning to `O=C(O)CCC(NC(=O)c1ccc(Nc2nc3ccccc3nc2-c2cccs2)cc1)C(=O)O` (configuration not stated), the TGI in assay [1], in assay [2], in assay [3], in [4], in [5] and in [6] was over 100 µM throughout. Further, the TGI in assay [7] and in assay [8] was over 100 µM in each case.

With `COC(=O)c1ccccc1NC(=O)C(=O)Cc1nc2c3c(ccc2[nH]c1=O)C(=O)c1ccccc1C3=O`, the TGI was over 100 µM in [1]; over 100 µM in [2]; over 100 µM in assay [3]; 82.1 µM in assay [4]; 20.4 µM in [5]; 31 µM in [6]. The TGI in assay [7] and in assay [8] was over 100 µM each time.

Take `OCC1=CC(NC2CC(CO)C(O)C(O)C2O)C(O)C(O)C1O` (configuration not stated): the TGI in assay [1], in assay [2], in [4], in [5], in assay [6] and in assay [8] was over 100 µM throughout.

Turning to `CCN(CC)CCSc1c2ccccc2nc2cc(NCC(=O)Nc3ccccc3-c3ccccc3NC(=O)CNc3ccc4c(SCCN(CC)CC)c5ccccc5nc4c3)ccc12`, the TGI in assay [1], in [2], in [3], in assay [4], in assay [5] and in [6] was over 100 µM in each case. Also, the TGI in assay [7] and in [8] was over 100 µM in each case.

Take `O=C(CC(=O)c1cccc2ccccc12)C(=O)Nc1ccc(Cl)cc1`: the TGI in assay [2], in assay [4], in [5], in [6], in assay [7] and in assay [8] was over 100 µM each time.

On to `CCOC(=O)CCC1(C(=O)OCC)CCCCC1=O` (configuration not stated), for which the TGI in assay [1], in assay [2], in assay [3], in assay [4], in assay [6] and in assay [7] was over 100 µM throughout. The molecule further came in with a TGI in assay [8] of over 100 µM.

In the case of `Cc1ccc(S(=O)(=O)OC[C@@H]2CO2)cc1`, the TGI in assay [1], in assay [2], in assay [3], in assay [4], in assay [6] and in [7] was over 100 µM each time.

For the molecule `COc1ccccc1N1C(=O)C2c3[nH]c4ccccc4c3C3CCC(C(C)(C)C)CC3C2C1=O` (configuration not stated), the TGI in assay [1], in assay [4], in assay [5], in assay [6] and in assay [8] was over 100 µM each time.

As to `C[N+](C)(C)CC(=O)N/N=C(/CC(=O)CC(C1=C(O)c2ccccc2OC1)c1ccccc1)C(=O)Nc1cccc(Cl)c1` (configuration not stated), the TGI in assay [9], in assay [1], in [2], in [3], in [4] and in [5] was over 100 µM each time. For the same molecule, the TGI in assay [7] and in [8] was over 100 µM throughout.

As for `CC1(C(=O)O)CCC[C@@]2(C)C1CC[C@@]1(C)c3cocc3CCC21` (some centres not stated), the TGI in [1], in assay [2], in [3], in [4], in [5] and in assay [6] was over 100 µM throughout. Besides, the TGI in [7] and in [8] was over 100 µM each time.

Regarding `Cc1c(C(=O)CC(=O)C(=O)Nc2ccccc2C(F)(F)F)[n+](=O)c2ccccc2n1[O-]`, the TGI in [1] turned out to be 92.1 µM; in [2] it was 61.6 µM; in assay [3], 48.3 µM; in assay [4] it was 49.4 µM; in assay [5], 34.4 µM; in assay [6], 37.1 µM. Besides, the TGI in assay [7] is 65.9 µM; in [8], 24.2 µM.

Consider `CC(=O)[CH-]C(=O)c1ccccc1.CC(=O)[CH-]C(=O)c1ccccc1.CN(C)c1ccc([O-])cc1.CN(C)c1ccc([O-])cc1.Cl.[Ti+4]`, for which the GI50 was over 31600 nM in [1]; 13.2 µM in [2]; over 31.6 µM in [3]; 24.6 µM in [4]; over 31600 nM in assay [5]; 14.8 µM in [6]. Also, the GI50 was 49.2 µM in assay [7] and 16.8 µM in assay [8]. The TGI in assay [1] is over 31.6 µM; in assay [2], 23.8 µM; in assay [3], over 31.6 µM; in assay [4] it was over 31.6 µM; in assay [5], over 31.6 µM; in [6], 26.4 µM. In addition, the TGI in assay [7] was over 100 µM; in assay [8], over 31.6 µM.

As to `NC1=NCCC1(c1ccccc1)c1ccccn1` (configuration not stated), the TGI in [1], in assay [2], in assay [3], in assay [4], in [5] and in assay [6] was over 100 µM in each case. Moreover, the TGI in [7] and in assay [8] was over 100 µM in each case.

As to `Nc1ccccc1S(=O)(=O)N(CC(=O)O)c1ccccc1`, the TGI in assay [1], in [3], in assay [4], in assay [5], in [6] and in [7] was over 100 µM each time. In [8], the TGI was over 100 µM.

`CCC[CH2][Sn]([CH2]CCC)([S]c1cccc2cccnc12)[S]c1cccc2cccnc12`: the results for the GI50 in [1], in assay [4] and in assay [5] were 160 nM, 0.336 µM and 279 nM, respectively. Further, the TGI is 0.472 µM in assay [1], 1.45 µM in [4] and 0.959 µM in assay [5].

With `C1=C2/CC[C@H](Sc3ccccc3)C2C2(CCCCC/1)OCCO2` (some centres not stated), the TGI in assay [1] was over 100 µM; in assay [2], 94 µM; in [3], 32.7 µM; in assay [4], over 100 µM; in assay [5], 64.5 µM; in assay [6] it was 55.2 µM. The molecule further returned a TGI in assay [8] of 73.7 µM.
